Measured values as given in ChEMBL document CHEMBL5136981, “Medicinal chemistry updates of novel HDACs inhibitors (2020 to present)” (Eur J Med Chem, 2022).
One block for each compound: values may come before it.

Tests used:
[1] = Inhibition of recombinant human HDAC3/NCOR1 using fluorescent deacetylated substrate incubated for 15 mins by fluorescence based assay
Histone deacetylase 2 = Histone deacetylase 2 (Homo sapiens, UniProt Q92769); assay: Inhibition of recombinant human HDAC2 using fluorescent green substrate incubated for 30 mins by fluorescence based assay
Chain of Histone deacetylase 2 (Q92769 whole entry): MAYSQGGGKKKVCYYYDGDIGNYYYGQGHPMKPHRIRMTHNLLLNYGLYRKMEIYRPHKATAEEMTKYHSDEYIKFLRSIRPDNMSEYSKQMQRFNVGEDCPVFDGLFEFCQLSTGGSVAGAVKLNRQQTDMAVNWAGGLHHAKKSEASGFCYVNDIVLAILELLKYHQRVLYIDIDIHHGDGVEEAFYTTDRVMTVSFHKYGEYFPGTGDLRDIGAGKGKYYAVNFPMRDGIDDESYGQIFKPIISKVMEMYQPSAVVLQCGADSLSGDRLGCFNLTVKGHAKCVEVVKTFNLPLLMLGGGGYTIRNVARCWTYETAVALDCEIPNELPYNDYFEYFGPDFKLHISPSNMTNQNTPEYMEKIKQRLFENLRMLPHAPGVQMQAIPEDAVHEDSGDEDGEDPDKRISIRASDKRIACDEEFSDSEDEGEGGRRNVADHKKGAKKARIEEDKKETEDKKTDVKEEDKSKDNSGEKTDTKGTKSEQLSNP

Histone deacetylase 1 [2] = target: T1, Histone deacetylase 1 (Homo sapiens, UniProt Q13547); assay: Inhibition of recombinant human HDAC1 using fluorescent deacetylated substrate incubated for 15 mins by fluorescence based assay
T1 sequence (Q13547 whole entry): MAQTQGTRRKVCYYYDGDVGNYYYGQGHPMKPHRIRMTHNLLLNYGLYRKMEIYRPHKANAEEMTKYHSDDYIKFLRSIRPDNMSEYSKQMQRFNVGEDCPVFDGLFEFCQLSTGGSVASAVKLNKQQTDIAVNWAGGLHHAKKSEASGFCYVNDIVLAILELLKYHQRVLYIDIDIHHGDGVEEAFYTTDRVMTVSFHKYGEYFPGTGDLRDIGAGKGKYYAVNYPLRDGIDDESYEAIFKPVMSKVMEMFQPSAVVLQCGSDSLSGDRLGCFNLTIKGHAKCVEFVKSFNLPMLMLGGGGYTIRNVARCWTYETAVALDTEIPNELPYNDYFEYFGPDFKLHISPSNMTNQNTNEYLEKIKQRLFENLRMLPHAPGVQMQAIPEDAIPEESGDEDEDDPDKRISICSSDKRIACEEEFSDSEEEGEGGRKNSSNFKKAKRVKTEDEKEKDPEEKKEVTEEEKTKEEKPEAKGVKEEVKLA

HeLa = assay: Antiproliferative activity against human HeLa cells assessed as cell growth inhibition incubated for 48 hrs by MTT assay; type: functional, cell-based
Homo sapiens = species on record: Homo sapiens; assay: Selectivity ratio of IC50 for recombinant human HDAC6 to IC50 for recombinant human HDAC1
Histone deacetylase 1 [3] = target: T1, Histone deacetylase 1; assay: Inhibition of recombinant human HDAC1 using fluorogenic acetylated peptide substrate incubated for 30 mins by microplate reader analysis
Histone deacetylase 1 [4] = target: T1, Histone deacetylase 1; assay: Inhibition of HDAC1 (unknown origin) incubated for 30 mins by fluorescence based assay
[5] = target: T2, Protein deacetylase HDAC6 (Homo sapiens, UniProt Q9UBN7); assay: Inhibition of HDAC6 (unknown origin) incubated for 30 mins by fluorescence based assay
T2 sequence (Q9UBN7 whole entry): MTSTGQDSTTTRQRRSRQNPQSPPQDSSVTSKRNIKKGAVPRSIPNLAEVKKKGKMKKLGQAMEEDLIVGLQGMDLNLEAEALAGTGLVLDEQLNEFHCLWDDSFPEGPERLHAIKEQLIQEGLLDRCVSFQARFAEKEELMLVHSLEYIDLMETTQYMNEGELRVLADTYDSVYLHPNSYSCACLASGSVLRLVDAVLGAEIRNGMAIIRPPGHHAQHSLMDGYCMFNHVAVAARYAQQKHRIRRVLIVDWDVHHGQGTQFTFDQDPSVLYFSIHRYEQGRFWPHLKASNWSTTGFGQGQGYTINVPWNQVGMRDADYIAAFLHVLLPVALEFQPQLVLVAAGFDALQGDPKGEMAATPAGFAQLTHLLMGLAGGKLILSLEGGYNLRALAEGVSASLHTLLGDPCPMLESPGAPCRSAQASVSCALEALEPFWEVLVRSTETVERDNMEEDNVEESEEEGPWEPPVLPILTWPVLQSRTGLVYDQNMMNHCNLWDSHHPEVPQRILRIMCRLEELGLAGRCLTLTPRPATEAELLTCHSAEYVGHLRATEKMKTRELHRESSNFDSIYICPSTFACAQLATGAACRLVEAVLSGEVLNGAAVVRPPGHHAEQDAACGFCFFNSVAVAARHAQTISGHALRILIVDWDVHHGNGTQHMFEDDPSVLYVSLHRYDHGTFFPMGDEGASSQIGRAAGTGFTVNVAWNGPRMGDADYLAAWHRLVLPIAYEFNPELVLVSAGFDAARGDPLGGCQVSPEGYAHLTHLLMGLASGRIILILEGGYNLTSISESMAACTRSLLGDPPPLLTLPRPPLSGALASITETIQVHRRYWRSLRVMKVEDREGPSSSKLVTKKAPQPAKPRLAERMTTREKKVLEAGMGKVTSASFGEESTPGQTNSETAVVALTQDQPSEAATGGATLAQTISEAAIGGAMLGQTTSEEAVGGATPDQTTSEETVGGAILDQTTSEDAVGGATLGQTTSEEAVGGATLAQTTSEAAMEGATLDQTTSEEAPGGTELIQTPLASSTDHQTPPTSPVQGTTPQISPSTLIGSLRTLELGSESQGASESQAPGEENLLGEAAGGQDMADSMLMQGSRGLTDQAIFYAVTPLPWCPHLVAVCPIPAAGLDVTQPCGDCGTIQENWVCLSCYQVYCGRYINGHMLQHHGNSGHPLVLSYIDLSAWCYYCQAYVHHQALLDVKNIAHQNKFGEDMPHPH

[6] = target: T3, von Hippel-Lindau disease tumor suppressor/Histone deacetylase 3 (Homo sapiens, UniProt O15379+P40337); assay: PROTAC activity at VHL/HDAC3 in human HCT-116 cells assessed as induction of HDAC1 degradation at 1 uM incubated for 24 hrs by Western blot analysis relative to control; type: cell-based
Target sequence in this assay (O15379 whole entry, looked up): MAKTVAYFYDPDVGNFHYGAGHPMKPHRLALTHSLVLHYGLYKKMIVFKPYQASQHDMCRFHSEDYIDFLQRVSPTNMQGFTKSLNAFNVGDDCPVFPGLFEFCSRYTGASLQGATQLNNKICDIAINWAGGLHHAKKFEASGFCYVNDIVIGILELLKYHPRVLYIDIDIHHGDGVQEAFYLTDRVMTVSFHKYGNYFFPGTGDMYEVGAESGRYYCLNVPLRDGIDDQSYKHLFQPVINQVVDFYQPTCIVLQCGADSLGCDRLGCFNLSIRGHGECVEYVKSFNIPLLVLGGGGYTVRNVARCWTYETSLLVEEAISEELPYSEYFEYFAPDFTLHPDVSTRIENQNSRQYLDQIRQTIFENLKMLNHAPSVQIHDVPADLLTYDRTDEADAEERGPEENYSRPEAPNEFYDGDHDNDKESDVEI
Target sequence in this assay (P40337 whole entry, looked up): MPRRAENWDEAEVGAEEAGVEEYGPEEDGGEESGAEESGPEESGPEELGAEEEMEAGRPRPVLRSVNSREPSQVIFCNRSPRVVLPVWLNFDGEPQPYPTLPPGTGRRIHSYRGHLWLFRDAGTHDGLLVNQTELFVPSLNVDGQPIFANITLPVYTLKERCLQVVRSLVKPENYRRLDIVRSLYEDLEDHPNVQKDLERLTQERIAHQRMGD

[7] = target: von Hippel-Lindau disease tumor suppressor/Histone deacetylase 2 (Homo sapiens) (UniProt Q92769+P40337); assay: PROTAC activity at VHL/HDAC2 in human HCT-116 cells assessed as induction of HDAC1 degradation at 1 uM incubated for 24 hrs by Western blot analysis relative to control; type: cell-based
Chain of von Hippel-Lindau disease tumor suppressor/Histone deacetylase 2 (Homo sapiens) (P40337 whole entry, looked up): as above
Chain of von Hippel-Lindau disease tumor suppressor/Histone deacetylase 2 (Homo sapiens) (Q92769 whole entry, looked up): as the sequence (Q92769 whole entry) above

[8] = target: T4, von Hippel-Lindau disease tumor suppressor/Histone deacetylase 1 (Homo sapiens, UniProt P40337+Q13547); assay: PROTAC activity at VHL/LSD1/HDAC1/CoREST complex interaction (unknown origin) assessed as induction of HDAC1 degradation using Boc-(Ac)Lys-AMC as substrate incubated for 20 mins by fluorescence based assay
T4 sequence (Q13547 whole entry): as the sequence (Q13547 whole entry) above
T4 sequence (P40337 whole entry): as the sequence (P40337 whole entry, looked up) above

[9] = target: von Hippel-Lindau disease tumor suppressor/Histone deacetylase 1 (Homo sapiens) (UniProt Q13547+P40337); assay: PROTAC activity at VHL/HDAC1 in human HCT-116 cells assessed as induction of HDAC1 degradation at 1 uM incubated for 24 hrs by Western blot analysis relative to control; type: cell-based
Chain of von Hippel-Lindau disease tumor suppressor/Histone deacetylase 1 (Homo sapiens) (P40337 whole entry, looked up): as above
Chain of von Hippel-Lindau disease tumor suppressor/Histone deacetylase 1 (Homo sapiens) (Q13547 whole entry, looked up): as the sequence (Q13547 whole entry) above

Histone deacetylase 1 [10] = target: T1, Histone deacetylase 1; assay: Inhibition of HDAC1 (unknown origin) using fluorimetric substrate incubated for 30 mins by fluorogenic assay
[11] = target: Protein cereblon/Histone deacetylase 3 (Homo sapiens, UniProt O15379+Q96SW2); assay: PROTAC activity at CRBN/HDAC3 (unknown origin) by cell based assay
Chain of Protein cereblon/Histone deacetylase 3 (O15379 whole entry): as the sequence (O15379 whole entry, looked up) above
Chain of Protein cereblon/Histone deacetylase 3 (Q96SW2 whole entry): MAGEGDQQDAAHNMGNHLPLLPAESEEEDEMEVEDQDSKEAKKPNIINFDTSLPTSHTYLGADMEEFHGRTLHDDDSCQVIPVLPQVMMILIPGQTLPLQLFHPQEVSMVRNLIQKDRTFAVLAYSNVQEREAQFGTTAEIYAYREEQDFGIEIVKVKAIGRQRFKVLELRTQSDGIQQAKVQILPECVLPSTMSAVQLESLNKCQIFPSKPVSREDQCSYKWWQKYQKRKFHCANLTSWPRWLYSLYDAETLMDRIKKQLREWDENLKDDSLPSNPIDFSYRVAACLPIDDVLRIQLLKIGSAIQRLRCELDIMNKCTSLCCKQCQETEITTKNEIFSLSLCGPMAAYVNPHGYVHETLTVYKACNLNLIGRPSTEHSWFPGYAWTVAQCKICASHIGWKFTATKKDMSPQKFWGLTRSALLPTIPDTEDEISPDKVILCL

[12] = target: Protein cereblon/Protein deacetylase HDAC6 (Homo sapiens, UniProt Q96SW2+Q9UBN7); assay: PROTAC activity at CRBN/HDAC6 (unknown origin) by cell based assay
Chain of Protein cereblon/Protein deacetylase HDAC6 (Q96SW2 whole entry, one chain of several): as the sequence (Q96SW2 whole entry) above

[13] = target: Protein cereblon/Histone deacetylase 2 (Homo sapiens, UniProt Q92769+Q96SW2); assay: PROTAC activity at CRBN/HDAC2 (unknown origin) by cell based assay
Chain of Protein cereblon/Histone deacetylase 2 (Q92769 whole entry): as the sequence (Q92769 whole entry) above
Chain of Protein cereblon/Histone deacetylase 2 (Q96SW2 whole entry): as the sequence (Q96SW2 whole entry) above

[14] = target: Protein cereblon/Histone deacetylase 1 (Homo sapiens, UniProt Q13547+Q96SW2); assay: PROTAC activity at CRBN/HDAC1 (unknown origin) by cell based assay
Chain of Protein cereblon/Histone deacetylase 1 (Q13547 whole entry): as the sequence (Q13547 whole entry) above
Chain of Protein cereblon/Histone deacetylase 1 (Q96SW2 whole entry): as the sequence (Q96SW2 whole entry) above

Histone deacetylase 1 [15] = target: T1, Histone deacetylase 1; assay: Inhibition of HDAC1 derived from human HeLa cell nuclear extract using Boc-Lys(Ac)-AMC as substrate by fluorescence based assay; type: cell-free
[16] = target: T2, Protein deacetylase HDAC6; assay: Inhibition of HDAC6 derived from human HeLa cell nuclear extract using Boc-Lys(Ac)-AMC as substrate by fluorescence based assay; type: cell-free
[17] = Inhibition of His-tagged recombinant human HDAC1 expressed in baculovirus infected insect cells using SIRT1 deacetylase substrate incubated for 30 mins by Luminescence Glo assay
[18] = target: T4, von Hippel-Lindau disease tumor suppressor/Histone deacetylase 1; assay: PROTAC activity at VHL/HDAC1 (unknown origin) by cell based assay
[19] = target: T3, von Hippel-Lindau disease tumor suppressor/Histone deacetylase 3; assay: PROTAC activity at VHL/HDAC3 (unknown origin) by cell based assay
Target sequence in this assay (O15379 whole entry): as the sequence (O15379 whole entry, looked up) above
Target sequence in this assay (P40337 whole entry): as the sequence (P40337 whole entry, looked up) above

[20] = target: von Hippel-Lindau disease tumor suppressor/Histone deacetylase 2 (Homo sapiens, UniProt P40337+Q92769); assay: PROTAC activity at VHL/HDAC2 (unknown origin) by cell based assay
Chain of von Hippel-Lindau disease tumor suppressor/Histone deacetylase 2 (Q92769 whole entry): as the sequence (Q92769 whole entry) above
Chain of von Hippel-Lindau disease tumor suppressor/Histone deacetylase 2 (P40337 whole entry): as the sequence (P40337 whole entry, looked up) above

[21] = target: T3, von Hippel-Lindau disease tumor suppressor/Histone deacetylase 3; assay: PROTAC activity at VHL/HDAC3 in human MDA-MB-468 cells assessed as induction of HDAC3 degradation incubated for 14 hrs by Western blot analysis; type: cell-based
Target sequence in this assay (O15379 whole entry): as the sequence (O15379 whole entry, looked up) above
Target sequence in this assay (P40337 whole entry): as the sequence (P40337 whole entry, looked up) above

IC50 [1]: 560 nM | IC50 (Histone deacetylase 2): 26 µM | IC50 (Histone deacetylase 1 [2]): 18.7 µM
Structure (SMILES): Nc1ccccc1NC(=O)c1ccc2ncccc2c1

IC50 (HeLa): 230 nM | Ratio IC50 (Homo sapiens): 26 | IC50 (Histone deacetylase 1 [3]): 190 nM
Structure (SMILES): COc1ccc2cc(C(=O)Oc3cccc(/C=C/C(=O)NO)c3)c(=O)oc2c1

IC50 (Histone deacetylase 1 [4]): 1.4 nM | IC50 [5]: 4.6 nM
Structure (SMILES): O=C(CCCCCCC(=O)Nc1nc2c(s1)C[C@@H](NC(=O)c1cccc3ccccc13)CC2)NO

Activity [6]: 50% | Activity [7]: 50% | IC50 [8]: 16.8 µM | Activity [9]: 50%
Structure (SMILES): Cc1ncsc1-c1ccc(CNC(=O)[C@@H]2C[C@@H](O)CN2C(=O)[C@@H](NC(=O)CCCCCCCCCCC(=O)Nc2ccc(C(=O)Nc3ccccc3N)cc2)C(C)(C)C)cc1

IC50 (Histone deacetylase 1 [10]): 10 nM
Structure (SMILES): Cc1ccc(C(=O)Nc2nc(C(=O)NO)co2)cc1

IC50 [11]: 27 nM | IC50 [12]: 27 nM | IC50 [13]: 248 nM | IC50 [14]: 174 nM
Structure (SMILES): O=C(CCCCCCNC(=O)c1ccc(NC(=O)COCCOCCNC(=O)COc2cccc3c2C(=O)N(C2CCC(=O)NC2=O)C3=O)cc1)NO (centres undefined)

IC50 (Histone deacetylase 1 [15]): 82 nM | IC50 [16]: 24 nM
Structure (SMILES): CC(C)n1cnc2c(-c3cccc(OCCCC(=O)NO)c3)nc(N3CCOCC3)nc21

Structure (SMILES): CCCCNNC(=O)c1ccc(-c2ccccc2)cc1
IC50 [17]: 90 nM

IC50 [18]: 650 nM | IC50 [19]: 350 nM | IC50 [20]: 1550 nM | EC50 [21]: 42 nM
Structure (SMILES): CCCNNC(=O)c1ccc(-c2ccc(NC(=O)CCCCCCC(=O)N[C@H](C(=O)N3C[C@H](O)C[C@H]3C(=O)N[C@@H](C)c3ccc(-c4scnc4C)cc3)C(C)(C)C)cc2)cc1
